Biological target: SIK2 (Homo sapiens (Human), UniProt Q9H0K1)
Assay: SIK2 Enzymatic Assay Version 2 (High ATP)
Format: biochemical
Conditions: 3 mM ATP and 200 μM HDAC5tide final, ADP-Glo Max luminescence
Procedure, shortened: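 Luminescent ADP-Glo Max read-out: depletion reagent 2 h, then detection reagent 1 h. Before the reaction, compounds were incubated 30 min with enzyme added at 6 nM (twice final concentration), with all steps at room temperature.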

SIK2, sequence (Q9H0K1 whole entry, species assumed): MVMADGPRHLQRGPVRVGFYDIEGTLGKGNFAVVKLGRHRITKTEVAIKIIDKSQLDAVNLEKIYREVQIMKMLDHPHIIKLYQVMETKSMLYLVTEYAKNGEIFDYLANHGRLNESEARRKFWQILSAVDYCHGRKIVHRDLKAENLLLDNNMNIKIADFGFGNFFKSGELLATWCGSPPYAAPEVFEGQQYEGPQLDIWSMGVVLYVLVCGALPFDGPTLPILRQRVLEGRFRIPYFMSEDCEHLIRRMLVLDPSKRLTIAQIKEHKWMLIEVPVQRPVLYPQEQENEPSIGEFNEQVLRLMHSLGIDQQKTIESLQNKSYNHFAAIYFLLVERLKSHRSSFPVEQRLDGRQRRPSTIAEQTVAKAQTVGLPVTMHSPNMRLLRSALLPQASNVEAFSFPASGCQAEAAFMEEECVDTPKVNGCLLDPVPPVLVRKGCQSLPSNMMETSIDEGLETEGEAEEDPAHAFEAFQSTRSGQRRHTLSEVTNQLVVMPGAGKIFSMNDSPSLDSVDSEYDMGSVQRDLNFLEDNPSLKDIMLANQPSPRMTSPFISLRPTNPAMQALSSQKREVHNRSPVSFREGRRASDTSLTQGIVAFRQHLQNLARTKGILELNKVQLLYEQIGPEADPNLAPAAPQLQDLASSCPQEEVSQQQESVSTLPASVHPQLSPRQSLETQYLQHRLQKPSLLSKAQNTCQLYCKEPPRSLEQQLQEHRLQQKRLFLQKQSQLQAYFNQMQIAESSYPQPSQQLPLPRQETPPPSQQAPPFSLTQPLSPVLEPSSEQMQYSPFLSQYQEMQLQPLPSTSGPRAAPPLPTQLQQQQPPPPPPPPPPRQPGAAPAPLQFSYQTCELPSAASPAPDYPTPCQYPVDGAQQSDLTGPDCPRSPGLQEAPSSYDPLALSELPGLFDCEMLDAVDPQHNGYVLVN

| Compound | IC50 [nM] |
| --- | --- |
| COc1nccc(Nc2cc3cc(-c4c(OC[C@H]5CCN5C)cnn4C)ccn3n2)n1 [Example 119, N-(2-methoxypyrimidin-4-yl)-5-[2-methyl-4-[[(2R)-1-methylazetidin-2-yl]methoxy]pyrazol-3-yl]pyrazolo[1,5-a]pyridin-2-amine] | 1.6 |
| Cc1onc(OC[C@](C)(c2ccccc2)N(C)C)c1-c1ccn2nc(NC(=O)C3CC3)cc2c1 [Example 226, N-[5-[3-[(2S)-2-(dimethylamino)-2-phenyl-propoxy]-5-methyl-isoxazol-4-yl]pyrazolo[1,5-a]pyridin-2-yl]cyclopropanecarboxamide] | 12.8 |
| Cc1nccc(Nc2cc3cc(-c4c(OC[C@H]5CCN5C)cnn4C)ccn3n2)n1 [Example 64, 5-[2-methyl-4-[[(2R)-1-methylazetidin-2-yl]methoxy]pyrazol-3-yl]-N-(2-methylpyrimidin-4-yl)pyrazolo[1,5-a]pyridin-2-amine] | 2 |
| [2H]C([2H])([2H])C([2H])([2H])N1CC[C@@H]1COc1cnn(C)c1-c1ccn2nc(Nc3cc(C)nc(C)n3)cc2c1 [Example 294, N-(2,6-dimethylpyrimidin-4-yl)-5-[2-methyl-4-[[(2R)-1-(1,1,2,2,2-pentadeuterioethyl)azetidin-2-yl]methoxy]pyrazol-3-yl]pyrazolo[1,5-a]pyridin-2-amine] | 2.6 |
| CCN1CC[C@@H]1COc1cnn(C(F)F)c1-c1ccn2nc(Nc3cc(C)ncn3)cc2c1 [Example 478, 5-[2-(difluoromethyl)-4-[[(2R)-1-ethylazetidin-2-yl]methoxy]pyrazol-3-yl]-N-(6-methylpyrimidin-4-yl)pyrazolo[1,5-a]pyridin-2-amine] | 3 |
| CCN1CC[C@@H]1COc1cnn(C)c1-c1ccn2nc(Nc3cnc(OC)cn3)cc2c1 [Example 180, 5-[4-[[(2R)-1-ethylazetidin-2-yl]methoxy]-2-methyl-pyrazol-3-yl]-N-(5-methoxypyrazin-2-yl)pyrazolo[1,5-a]pyridin-2-amine] | 2.1 |
| Cc1cc(Nc2cc3cc(-c4c(OC[C@@H]5CC(=O)N(C)C5)cnn4C)ccn3n2)nc(C)n1 (single isomer, unassigned) [Example 35, *R-4-[[5-[2-[(2,6-dimethylpyrimidin-4-yl)amino]pyrazolo[1,5-a]pyridin-5-yl]-1-methyl-pyrazol-4-yl]oxymethyl]-1-methyl-pyrrolidin-2-one] | 19.2 |
| Cc1onc(O[C@@H]2CN[C@@H]3CCCO[C@@H]32)c1-c1ccn2nc(NC(=O)C3CC3)cc2c1 [Example 227, (3R, 3aS, 7aR)—N-[5-[3-(1,2,3,3a,5,6,7,7a-octahydropyrano[3,2-b]pyrrol-3-yloxy)-5-methyl-isoxazol-4-yl]pyrazolo[1,5-a]pyridin-2-yl]cyclopropanecarboxamide] | 34.9 |
| CN1CC[C@@H]1COc1cnn(C)c1-c1ccn2nc(Nc3ccc(=O)n(C)n3)cc2c1 [Example 143, 2-methyl-6-[[5-[2-methyl-4-[[(2R)-1-methylazetidin-2-yl]methoxy]pyrazol-3-yl]pyrazolo[1,5-a]pyridin-2-yl]amino]pyridazin-3-one] | 2.4 |
| Cc1onc(O[C@@H]2CCNC[C@H]2F)c1-c1ccn2nc(NC(=O)C3CC3)cc2c1 (single isomer, unassigned) [Example 216, N-(5-(3-(((3*R,4*S)-3-fluoropiperidin-4-yl)oxy)-5-methylisoxazol-4-yl)pyrazolo[1,5-a]pyridin-2-yl)cyclopropanecarboxamide] | 29.6 |
| CN[C@H](COc1noc(C)c1-c1ccn2nc(NC(=O)C3CC3)cc2c1)c1ccccn1 [Example 224, N-[5-[5-methyl-3-[(2S)-2-(methylamino)-2-(2-pyridyl)ethoxy]isoxazol-4-yl]pyrazolo[1,5-a]pyridin-2-yl]cyclopropanecarboxamide] | 21.4 |
| Cc1onc(O[C@@H]2CN[C@H](C(F)F)C2)c1-c1ccn2nc(NC(=O)C3CC3)cc2c1 [Example 389, N-[5-[3-[(3S,5S)-5-(difluoromethyl)pyrrolidin-3-yl]oxy-5-methyl-isoxazol-4-yl]pyrazolo[1,5-a]pyridin-2-yl]cyclopropanecarboxamide] | 125 |
| Cc1cc(Nc2cc3cc(-c4c(OC[C@H]5CCN5C)cnn4C)ccn3n2)nc(NC2CCCC2)n1 [Example 129, N2-cyclopentyl-6-methyl-N4-[5-[2-methyl-4-[[(2R)-1-methylazetidin-2-yl]methoxy]pyrazol-3-yl]pyrazolo[1,5-a]pyridin-2-yl]pyrimidine-2,4-diamine] | < 0.847 |
| CN1[C@@H]2COC[C@H]1C[C@@H](OCc1cnn(C)c1-c1ccn3nc(NC(=O)C4CC4)cc3c1)C2 [Example 185, N-[5-[2-methyl-4-[[(1S,5R)-9-methyl-3-oxa-9-azabicyclo[3.3.1]nonan-7-yl]oxymethyl]pyrazol-3-yl]pyrazolo[1,5-a]pyridin-2-yl]cyclopropanecarboxamide] | 18.3 |
| Cc1nccc(Nc2cc3cc(-c4c(O[C@H]5CCN(C)C5)cnn4C)ccn3n2)n1 [Example 456, 5-[2-methyl-4-[(3S)-1-methylpyrrolidin-3-yl]oxy-pyrazol-3-yl]-N-(2-methylpyrimidin-4-yl)pyrazolo[1,5-a]pyridin-2-amine] | 102 |
| CCN1CC[C@@H]1COc1cnn(C)c1-c1ccn2nc(Nc3ccc4nc(C)cn4n3)cc2c1 [Example 174, N-[5-[4-[[(2R)-1-ethylazetidin-2-yl]methoxy]-2-methyl-pyrazol-3-yl]pyrazolo[1,5-a]pyridin-2-yl]-2-methyl-imidazo[1,2-b]pyridazin-6-amine] | < 0.847 |
| Cc1onc(OC[C@H]2C[C@@H](N)C2)c1-c1ccn2nc(NC(=O)C3CC3)cc2c1 [Example 319, N-[5-[3-[(3-aminocyclobutyl)methoxy]-5-methyl-isoxazol-4-yl]pyrazolo[1,5-a]pyridin-2-yl]cyclopropanecarboxamide] | 51.8 |
| CN1CC[C@H](Oc2cnn(C)c2-c2ccn3nc(Nc4cccnn4)cc3c2)C1 [Example 449, 5-[2-methyl-4-[(3S)-1-methylpyrrolidin-3-yl]oxy-pyrazol-3-yl]-N-pyridazin-3-yl-pyrazolo[1,5-a]pyridin-2-amine] | 89.5 |
| CN1CC[C@H](Oc2cnn(C)c2-c2ccc3nc(NC(=O)C4CC4)cn3c2)C1 [Example 472, N-[6-[2-methyl-4-[(3S)-1-methylpyrrolidin-3-yl]oxy-pyrazol-3-yl]imidazo[1,2-a]pyridin-2-yl]cyclopropanecarboxamide] | 106 |
| Cc1cc(Nc2cc3cc(-c4c(OC[C@@]5(F)CCNC5)cnn4C(F)F)ccn3n2)nc(C)n1 (single isomer, unassigned) [Example 262, (*R)-5-(1-(difluoromethyl)-4-((3-fluoropyrrolidin-3-yl)methoxy)-1H-pyrazol-5-yl)-N-(2,6-dimethylpyrimidin-4-yl)pyrazolo[1,5-a]pyridin-2-amine] | 4.7 |

Results, then the molecule that gave them:

| IC50 [nM] | Compound |
| --- | --- |
| 46.5 | Cn1ncc(OC[C@H]2CCN2C[C@H]2CCCO2)c1-c1ccn2nc(NC(=O)C3CC3)cc2c1 [Example 259, N-(5-(1-methyl-4-(((R)-1-(((R)-tetrahydrofuran-2-yl)methyl)azetidin-2-yl)methoxy)-1H-pyrazol-5-yl)pyrazolo[1,5-a]pyridin-2-yl)cyclopropanecarboxamide] |
| 3.1 | CN1CC[C@@H]1COc1cnn(C)c1-c1ccn2nc(NC(=O)[C@H]3C[C@@H]3c3ccccc3)cc2c1 (single isomer, unassigned) [Example 156, (1*S, 2*S)—N-[5-[2-methyl-4-[((R)-1-methylazetidin-2-yl)methoxy]pyrazol-3-yl]pyrazolo[1,5-a]pyridin-2-yl]-2-phenyl-cyclopropanecarboxamide] |
| 54 | CN1CCO[C@@H](COc2cnn(C)c2-c2ccn3nc(NC(=O)C4CC4)cc3c2)C1 [Example 333, N-[5-[2-methyl-4-[[(2R)-4-methylmorpholin-2-yl]methoxy]pyrazol-3-yl]pyrazolo[1,5-a]pyridin-2-yl]cyclopropanecarboxamide] |
| 47.7 | CN1CC[C@@H]1COc1cnn(C)c1-c1ccn2nc(NC(=O)[C@H]3C[C@H]3c3ccccc3)cc2c1 [Example 158, (1S,2R)—N-[5-[2-methyl-4-[[(2R)-1-methylazetidin-2-yl]methoxy]pyrazol-3-yl]pyrazolo[1,5-a]pyridin-2-yl]-2-phenyl-cyclopropanecarboxamide] |
| 7330 | CCCn1ncc(OC[C@@H]2CCN(C)C2)c1-c1ccn2nc(NC(=O)C3CC3)cc2c1 [Example 490, N-[5-[4-[[(3R)-1-methylpyrrolidin-3-yl]methoxy]-2-propyl-pyrazol-3-yl]pyrazolo[1,5-a]pyridin-2-yl]cyclopropanecarboxamide] |
| 130 | CN1C[C@@H](COc2cnn(C)c2-c2ccn3nc(NC(=O)C4CC4)cc3c2)[C@H](O)C1 [Example 417, N-[5-[4-[[(3S,4S)-4-hydroxy-1-methyl-pyrrolidin-3-yl]methoxy]-2-methyl-pyrazol-3-yl]pyrazolo[1,5-a]pyridin-2-yl]cyclopropanecarboxamide] |
| 2500 | CC(=O)N1CC[C@@H]1COc1cnn(C)c1-c1ccn2nc(NC(=O)C3CC3)cc2c1 [Example 56, N-[5-[4-[[(2R)-1-acetylazetidin-2-yl]methoxy]-2-methyl-pyrazol-3-yl]pyrazolo[1,5-a]pyridin-2-yl]cyclopropanecarboxamide] |
| 46.9 | Cn1ncc(OCC2(N)CCC2)c1-c1ccn2nc(NC(=O)C3CC3)cc2c1 [Example 231, N-[5-[4-[(1-aminocyclobutyl)methoxy]-2-methyl-pyrazol-3-yl]pyrazolo[1,5-a]pyridin-2-yl]cyclopropanecarboxamide] |
| 16.5 | Cc1onc(OC[C@H]2CCN2C)c1-c1ccn2nc(NC(=O)C3CC3)cc2c1 [Example 87, N-[5-[5-methyl-3-[[(2R)-1-methylazetidin-2-yl]methoxy]isoxazol-4-yl]pyrazolo[1,5-a]pyridin-2-yl]cyclopropanecarboxamide] |
| 28.7 | Cn1ncc(OCC2NCC23CC3)c1-c1ccn2nc(NC(=O)C3CC3)cc2c1 (racemic) [Example 240, (RS)—N-[5-[4-(5-azaspiro[2.3]hexan-6-ylmethoxy)-2-methyl-pyrazol-3-yl]pyrazolo[1,5-a]pyridin-2-yl]cyclopropanecarboxamide] |
